Molecular target: T1, α3β4 nicotinic receptor subtype expressed in Xenopus oocytes (Rattus norvegicus, UniProt P04757+P12392)
T1 construct: expressed in transfected cells; host or cells: Xenopus laevis oocytes injected with subunit cRNAs
Assay: Inhibition of ACh evoked current through nicotinic receptors expressed in Xenopus oocytes (α3β4)
Type: cell-based
Details: co-application with acetylcholine; FIG. 2
Protocol: Rat nicotinic receptor cDNAs clones were linearized and purified, and RNA transcripts were prepared in vitro using the appropriate mMessage mMachine kit. Mature (>9 cm) female Xenopus laevis African toads (Nasco, Ft. Atkinson, Wis.), housed in the Division of Lab Animal Resources at the University of Florida were used as a source of oocytes. Prior to surgery, frogs were anesthetized by placing the animal in a 1.5 g/L solution of MS222 for 30 minutes. Oocytes were removed from an incision made in the abdomen. […]
Each oocyte received two initial control applications of ACh, then a nicotine or analog application, and then a follow-up control application of ACh. […] Responses to each nicotine or analog application were calculated relative to the preceding ACh control responses in order to normalize the data, compensating for the varying levels of channel expression among the oocytes. […] Responses for α7 receptors were calculated as net charge (Papke et al., 2002). For subtypes other than α7, responses were calculated from the peak current amplitudes. Means and standard errors (SEM) were calculated from the normalized responses of at least four oocytes for each drug concentration. […]
For concentration-response relations, data derived from net-charge analyses were plotted using Kaleidagraph 3.0.2 (Abelbeck Software; Reading, Pa.) and curves were generated from the Hill equation […]

T1 sequence (P12392 21-495): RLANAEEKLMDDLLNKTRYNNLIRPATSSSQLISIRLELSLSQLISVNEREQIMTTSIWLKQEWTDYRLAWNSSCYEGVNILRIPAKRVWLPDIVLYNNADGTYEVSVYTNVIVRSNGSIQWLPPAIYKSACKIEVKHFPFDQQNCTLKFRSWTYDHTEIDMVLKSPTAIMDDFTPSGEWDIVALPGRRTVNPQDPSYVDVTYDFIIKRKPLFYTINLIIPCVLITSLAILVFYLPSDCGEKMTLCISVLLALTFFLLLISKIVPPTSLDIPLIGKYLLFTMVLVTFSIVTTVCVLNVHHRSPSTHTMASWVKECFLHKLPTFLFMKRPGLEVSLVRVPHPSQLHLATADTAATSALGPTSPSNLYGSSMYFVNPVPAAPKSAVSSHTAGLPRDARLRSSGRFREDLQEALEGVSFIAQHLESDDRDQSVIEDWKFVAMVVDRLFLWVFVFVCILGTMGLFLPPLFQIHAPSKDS
T1 sequence (P04757 26-499): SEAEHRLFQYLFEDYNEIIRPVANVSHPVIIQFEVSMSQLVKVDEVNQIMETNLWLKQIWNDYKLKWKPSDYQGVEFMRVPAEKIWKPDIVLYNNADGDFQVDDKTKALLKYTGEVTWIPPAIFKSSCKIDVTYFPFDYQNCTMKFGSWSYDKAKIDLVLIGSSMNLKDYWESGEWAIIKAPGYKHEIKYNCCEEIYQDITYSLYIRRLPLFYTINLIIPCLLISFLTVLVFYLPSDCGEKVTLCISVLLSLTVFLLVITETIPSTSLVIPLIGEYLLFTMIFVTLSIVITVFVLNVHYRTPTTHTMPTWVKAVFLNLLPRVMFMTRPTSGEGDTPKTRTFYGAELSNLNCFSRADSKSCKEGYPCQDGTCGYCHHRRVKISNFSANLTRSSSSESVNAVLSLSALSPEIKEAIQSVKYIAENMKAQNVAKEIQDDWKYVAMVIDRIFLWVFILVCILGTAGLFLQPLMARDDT

## CN1CCC[C@H]1c1ccc[n+](CCCC#Cc2cc(C#CCCC[n+]3cccc([C@@H]4CCCN4C)c3)cc(C#CCCC[n+]3cccc([C@@H]4CCCN4C)c3)c2)c1 [GZ551B, 1,3,5-tris-{5-[3-(1-methyl-2-S-pyrrolidinyl)pyridinium]-pent-1-ynyl}-benzene tribromide]
  inhibition of ACh response at α3β4 nicotinic receptor subtype (in words): potently inhibited

From US8940774B2, “Tris-Quaternary Ammonium Salts and Methods for Modulating Neuronal Nicotinic Acetylcholine Receptors” (University of Kentucky Research Foundation, priority 2005, dated 2015)
